Here are results for 20 molecules from patent US7951814B2, “Quinazolinedione derivatives as TRPA1 modulators” (Glenmark Pharmaceuticals, S.A., priority 2008, dated 2011).

The target in the assay is T1, Human TRPA1 expressing CHO cells (Homo sapiens, UniProt O75762).
T1 construct: expressed in transfected cells; host or cells: CHO cells (under G-418 selection)
Nature of the assay: 45Calcium uptake assay: inhibition of AITC induced cellular uptake of radioactive calcium. In kind it is cell-based. The settings on record: AITC 30 μM, human TRPA1 CHO cells; for inhibition at 1 µM: 1.0 μM test compound, read-out: Percentage inhibition at 1.0 μM; for inhibition at 10 µM: 10.0 μM test compound, read-out: Percentage inhibition at 10.0 μM; for IC50: read-out: IC50 value (range). Here is the method:
The illustrative examples of the present invention are screened for TRPA1 activity according to a modified procedure described in (a) Tóth, A. et al. Life Sciences (2003), 73, 487-498. ([…]. et al. Proc. Natl. Acad. Sci. U.S.A., (2007), 104, 13525-13530. The screening of the compounds can be carried out by other methods and procedures known to persons skilled in the art. Screening for TRPA1 Antagonist Using the ^45Calcium Uptake Assay The inhibition of TRPA1 receptor activation was measured as inhibition of allyl isothiocyanate (AITC) induced cellular uptake of radioactive calcium. […] Final concentration of DMSO in the reaction was 0.5% (v/v). […] Cells were seeded 24 h prior to the assay in 96 well plates so as to get 50,000 cells per well on the day of experiment. Cells were treated with test compounds for 10 min followed by addition of AITC at a final concentration of 30 μM and 5 μCi/ml ^45Ca^+2 for 3 min. […] Radioactivity in the lysate was measured in Packard Top count after addition of liquid scintillant. Concentration response curves were plotted as a % of maximal response obtained in the absence of test antagonist. IC50 value was calculated from concentration response curve by nonlinear regression analysis using GraphPad PRISM software.

Structures are written as SMILES. Some results are limits rather than exact numbers.

T1 sequence (O75762 whole entry): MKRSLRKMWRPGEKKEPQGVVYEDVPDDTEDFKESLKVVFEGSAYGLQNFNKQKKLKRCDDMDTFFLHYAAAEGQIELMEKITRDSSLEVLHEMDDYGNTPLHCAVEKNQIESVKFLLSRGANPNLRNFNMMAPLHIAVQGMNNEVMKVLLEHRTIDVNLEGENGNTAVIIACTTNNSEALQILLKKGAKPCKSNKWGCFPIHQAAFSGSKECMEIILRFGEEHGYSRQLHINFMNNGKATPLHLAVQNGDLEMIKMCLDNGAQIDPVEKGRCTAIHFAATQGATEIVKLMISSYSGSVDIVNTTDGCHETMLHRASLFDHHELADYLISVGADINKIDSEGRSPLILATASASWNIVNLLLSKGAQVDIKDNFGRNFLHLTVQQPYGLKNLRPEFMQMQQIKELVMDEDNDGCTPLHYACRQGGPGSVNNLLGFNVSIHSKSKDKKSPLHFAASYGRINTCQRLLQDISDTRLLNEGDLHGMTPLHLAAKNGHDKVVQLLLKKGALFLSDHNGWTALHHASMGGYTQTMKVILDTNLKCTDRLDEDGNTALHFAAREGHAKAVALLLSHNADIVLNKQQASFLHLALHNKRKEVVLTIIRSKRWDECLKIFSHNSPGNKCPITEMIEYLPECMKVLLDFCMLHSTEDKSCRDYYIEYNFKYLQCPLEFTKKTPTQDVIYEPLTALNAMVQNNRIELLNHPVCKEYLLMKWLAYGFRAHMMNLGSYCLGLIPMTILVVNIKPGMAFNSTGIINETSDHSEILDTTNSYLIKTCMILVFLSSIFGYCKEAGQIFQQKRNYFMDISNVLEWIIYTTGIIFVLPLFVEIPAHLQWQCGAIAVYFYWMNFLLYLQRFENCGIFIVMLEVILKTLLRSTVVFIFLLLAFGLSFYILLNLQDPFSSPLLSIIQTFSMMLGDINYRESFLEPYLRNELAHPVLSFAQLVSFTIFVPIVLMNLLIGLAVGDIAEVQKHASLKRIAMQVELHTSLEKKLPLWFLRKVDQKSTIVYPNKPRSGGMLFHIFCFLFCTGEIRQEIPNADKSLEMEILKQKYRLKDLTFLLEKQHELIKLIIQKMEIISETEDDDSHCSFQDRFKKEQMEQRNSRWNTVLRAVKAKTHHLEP

The inhibition is the share of the control response that was lost under treatment. On to `Cn1c(=O)c2c(CC(=O)Nc3ccc(-c4ccc(Br)cc4)cc3)cccc2n(C)c1=O` [Example 2, N1-[4-(4-Bromophenyl)phenyl]-2-(1,3-dimethyl-2,4-dioxo-1,2,3,4-tetrahydro-5-quinazolinyl)acetamide], for which the inhibition at 1 µM worked out at 25.3% and the inhibition at 10 µM was found to be 50.8%.
Taken in the same sequence, the figures for `Cc1ccc(Oc2ccc(NC(=O)Cc3cccc4c3c(=O)n(C)c(=O)n4C)cc2)cc1` [Example 3, N1-[4-(4-Methylphenoxy)phenyl]-2-(1,3-dimethyl-2,4-dioxo-1,2,3,4-tetrahydro-5-quinazolinyl)acetamide] were 7.98% and 31.6%.
For `Cn1c(=O)c2c(CC(=O)Nc3cccc(-c4ccc(Cl)cc4)n3)cccc2n(C)c1=O` [Example 4, N1-[6-(4-chlorophenyl)-2-pyridyl]-2-(1,3-dimethyl-2,4-dioxo-1,2,3,4-tetrahydro-5-quinazolinyl)acetamide], in that order: 60.7% and 95.2%.
`Cn1c(=O)c2c(CC(=O)Nc3ccc(-c4ccc(Cl)cc4)cn3)cccc2n(C)c1=O` [Example 5, N1-[5-(4-chlorophenyl)-2-pyridyl]-2-(1,3-dimethyl-2,4-dioxo-1,2,3,4-tetrahydro-5-quinazolinyl)acetamide]: the inhibition at 1 µM came out at 52.2% and the inhibition at 10 µM came to 71.5%.
Taken in the same sequence, the figures for `Cn1c(=O)c2c(CC(=O)Nc3cccc(-c4ccc(C(F)(F)F)cc4)n3)cccc2n(C)c1=O` [Example 6, N1-[6-(4-Trifluoromethylphenyl)-2-pyridyl]-2-(1,3-dimethyl-2,4-dioxo-1,2,3,4-tetrahydro-5-quinazolinyl)acetamide] were 71.3% and 88.2%.
For `Cn1c(=O)c2c(CC(=O)Nc3nc(C4CCCCC4)cs3)cccc2n(C)c1=O` [Example 7, N1-[4-(4-Cyclohexyl)-1,3-thiazol-2yl]-2-(1,3-dimethyl-2,4-dioxo-1,2,3,4-tetrahydro-5-quinazolinyl)acetamide], in that order: 62.2% and 60.5%.
For `Cn1c(=O)c2c(CC(=O)Nc3nc(-c4ccccc4)cs3)cccc2n(C)c1=O` [Example 8, N1-[4-phenyl-1,3-thiazol-2-yl]-2-(1,3-dimethyl-2,4-dioxo-1,2,3,4-tetrahydro-5-quinazolinyl)acetamide], in that order: 52.9% and 79.9%.
For `Cn1c(=O)c2c(CC(=O)Nc3nc(-c4ccc(F)cc4)cs3)cccc2n(C)c1=O` [Example 9, N1-[4-(4-Fluorophenyl)-1,3-thiazol-2yl]-2-(1,3-dimethyl-2,4-dioxo-1,2,3,4-tetrahydro-5-quinazolinyl)acetamide], the inhibition at 1 µM is 30.8% and the inhibition at 10 µM is 43.8%.
In general, IC50 refers to the concentration that gives 50% inhibition. For the molecule `Cn1c(=O)c2c(CC(=O)Nc3nc(-c4cccc(Cl)c4)cs3)cccc2n(C)c1=O` [Example 11, N1-[4-(3-Chlorophenyl)-1,3-thiazol-2yl]-2-(1,3-dimethyl-2,4-dioxo-1,2,3,4-tetrahydro-5-quinazolinyl)acetamide], the inhibition at 1 µM came to 95.5%, the inhibition at 10 µM was found to be 99.1% and the concentration for half-maximal inhibition (IC50) was greater than 100 nM.
For `Cn1c(=O)c2c(CC(=O)Nc3nc(-c4ccc(Br)cc4)cs3)cccc2n(C)c1=O` [Example 12], in that order: 98.7%, 99.2% and 50.1 to 100 nM.
Turning to `Cn1c(=O)c2c(CC(=O)Nc3nc(-c4ccc(I)cc4)cs3)cccc2n(C)c1=O` [Example 13, N1-[4-(4-Iodophenyl)-1,3-thiazol-2yl]-2-(1,3-dimethyl-2,4-dioxo-1,2,3,4-tetrahydro-5-quinazolinyl)acetamide], the inhibition at 1 µM is 79.2%, the inhibition at 10 µM amounted to 94.7% and the half-inhibitory concentration (IC50) was 50.1 to 100 nM.
For `Cn1c(=O)c2c(CC(=O)Nc3nc(-c4ccc(C(F)(F)F)cc4)cs3)cccc2n(C)c1=O` [Example 14, N1-[4-(4-Trifluromethylphenyl)-1,3-thiazol-2yl]-2-(1,3-dimethyl-2,4-dioxo-1,2,3,4-tetrahydro-5-quinazolinyl)acetamide], in that order: 97.9%, 99.1% and less than 50 nM.
For `Cn1c(=O)c2c(CC(=O)Nc3nc(-c4cccc(OC(F)(F)F)c4)cs3)cccc2n(C)c1=O` [Example 16, N1-[4-(3-Trifluoromethoxyphenyl)-1,3-thiazol-2-yl]-2-(1,3-dimethyl-2,4-dioxo-1,2,3,4-tetrahydro-5-quinazolinyl)acetamide], in that order: 95.6%, 99.7% and less than 50 nM.
Turning to `COc1ccc(-c2csc(NC(=O)Cc3cccc4c3c(=O)n(C)c(=O)n4C)n2)cc1` [Example 17, N1-[4-(4-Methoxyphenyl)-1,3-thiazol-2-yl]-2-(1,3-dimethyl-2,4-dioxo-1,2,3,4-tetrahydro-5-quinazolinyl)acetamide], the inhibition at 1 µM was 30% and the inhibition at 10 µM worked out at 75.9%.
For the molecule `Cn1c(=O)c2c(CC(=O)Nc3nc(-c4ccc(C5CCCCC5)cc4)cs3)cccc2n(C)c1=O` [Example 18, N1-[4-(4-Cyclohexylphenyl)-1,3-thiazol-2yl]-2-(1,3-dimethyl-2,4-dioxo-1,2,3,4-tetrahydro-5-quinazolinyl)acetamide], the inhibition at 1 µM worked out at 79.3%, the inhibition at 10 µM is 88.3% and the half-maximal inhibitory concentration (IC50) was less than 50 nM.
Regarding `CC(C)CCOc1ccc(-c2csc(NC(=O)Cc3cccc4c3c(=O)n(C)c(=O)n4C)n2)cc1` [Example 19, N1-[4-(4-(3-Methylbutoxy)phenyl)-1,3-thiazol-2-yl]-2-(1,3-dimethyl-2,4-dioxo-1,2,3,4-tetrahydro-5-quinazolinyl)acetamide], the inhibition at 1 µM was 93%, the inhibition at 10 µM was 97.9% and the IC50 is 50.1 to 100 nM.
Taken in the same sequence, the figures for `Cn1c(=O)c2c(CC(=O)Nc3nc(-c4ccc(C(C)(C)C)cc4)cs3)cccc2n(C)c1=O` [Example 20, N1-[4-(4-tert-Butylphenyl)-1,3-thiazol-2-yl]-2-(1,3-dimethyl-2,4-dioxo-1,2,3,4-tetrahydro-5-quinazolinyl)acetamide] were 98.9%, 99.8% and 50.1 to 100 nM.
For `CC(C)Cc1ccc(-c2csc(NC(=O)Cc3cccc4c3c(=O)n(C)c(=O)n4C)n2)cc1` [Example 21], in that order: 95.7%, 99.7% and less than 50 nM.
For `CC(C)c1ccc(-c2csc(NC(=O)Cc3cccc4c3c(=O)n(C)c(=O)n4C)n2)cc1` [Example 22, N1-[4-(4-isopropylphenyl)-1,3-thiazol-2-yl]-2-(1,3-dimethyl-2,4-dioxo-1,2,3,4-tetrahydro-5-quinazolinyl)acetamide], in that order: 95.3%, 98% and 50.1 to 100 nM.
In the case of `CCc1ccc(-c2csc(NC(=O)Cc3cccc4c3c(=O)n(C)c(=O)n4C)n2)cc1` [Example 23], the inhibition at 1 µM amounted to 96.2%, the inhibition at 10 µM turned out to be 96.9% and the 50% inhibitory concentration (IC50) was 50.1 to 100 nM.
